From the NIST ThermoML archive (doi:10.1021/je400140n)
Numbers after ± are expanded uncertainties.

Assay: molar heat capacity at constant pressure
Conditions: 101.33 kPa, Liquid, Small sample (50 mg) DSC

Row | SMILES | molar heat capacity at constant pressure (296.2 K) | molar heat capacity at constant pressure (300.2 K) | molar heat capacity at constant pressure (304.2 K) | molar heat capacity at constant pressure (308.2 K) | molar heat capacity at constant pressure (312.2 K) | molar heat capacity at constant pressure (316.2 K) | molar heat capacity at constant pressure (320.2 K) | molar heat capacity at constant pressure (324.2 K) | molar heat capacity at constant pressure (328.2 K) | molar heat capacity at constant pressure (332.2 K) | molar heat capacity at constant pressure (336.2 K) | molar heat capacity at constant pressure (340.2 K) | molar heat capacity at constant pressure (344.2 K) | molar heat capacity at constant pressure (348.2 K) | molar heat capacity at constant pressure (352.2 K) | molar heat capacity at constant pressure (356.2 K) | molar heat capacity at constant pressure (360.2 K) | molar heat capacity at constant pressure (364.2 K) | molar heat capacity at constant pressure (368.2 K) | molar heat capacity at constant pressure (372.2 K)
1 | CCCCn1cc[n+](C)c1.N#CN=C=[N-] [1-butyl-3-methylimidazolium dicyanamide] | 359.41 ± 58 J/K/mol | 361.87 ± 58 J/K/mol | 363.1 ± 58 J/K/mol | 364.34 ± 58 J/K/mol | 365.98 ± 59 J/K/mol | 367.21 ± 59 J/K/mol | 368.65 ± 59 J/K/mol | 370.08 ± 60 J/K/mol | 372.14 ± 60 J/K/mol | 374.39 ± 60 J/K/mol | 377.47 ± 61 J/K/mol | 380.35 ± 61 J/K/mol | 383.63 ± 62 J/K/mol | 386.71 ± 62 J/K/mol | 390.4 ± 63 J/K/mol | 394.51 ± 63 J/K/mol | 398.82 ± 64 J/K/mol | 403.34 ± 65 J/K/mol | 408.26 ± 65 J/K/mol | 413.6 ± 67 J/K/mol
2 | CCCCn1cc[n+](C)c1.N#C[S-] [1-butyl-3-methylimidazolium thiocyanate] | 319.63 ± 51 J/K/mol | 319.63 ± 51 J/K/mol | 320.22 ± 51 J/K/mol | 321.21 ± 51 J/K/mol | 322.98 ± 52 J/K/mol | 324.36 ± 52 J/K/mol | 325.55 ± 52 J/K/mol | 326.93 ± 52 J/K/mol | 329.1 ± 53 J/K/mol | 331.27 ± 53 J/K/mol | 333.64 ± 54 J/K/mol | 336 ± 54 J/K/mol | 338.57 ± 54 J/K/mol | 341.13 ± 55 J/K/mol | 344.29 ± 55 J/K/mol | 347.05 ± 56 J/K/mol | 350.21 ± 56 J/K/mol | 353.37 ± 57 J/K/mol | 356.72 ± 57 J/K/mol | 360.27 ± 58 J/K/mol
3 | CCn1cc[n+](C)c1.N#C[C-](C#N)C#N [1-ethyl-3-methyl-1H-imidazolium tricyanomethanide] | 357.18 ± 57 J/K/mol | 360.2 ± 58 J/K/mol | 362.41 ± 58 J/K/mol | 363.82 ± 58 J/K/mol | 365.83 ± 59 J/K/mol | 367.44 ± 59 J/K/mol | 368.85 ± 59 J/K/mol | 370.26 ± 60 J/K/mol | 372.07 ± 60 J/K/mol | 374.49 ± 60 J/K/mol | 376.9 ± 61 J/K/mol | 379.31 ± 61 J/K/mol | 381.73 ± 61 J/K/mol | 384.35 ± 62 J/K/mol | 387.16 ± 62 J/K/mol | 390.18 ± 63 J/K/mol | 393 ± 63 J/K/mol | 396.22 ± 64 J/K/mol | 399.24 ± 64 J/K/mol | 403.06 ± 65 J/K/mol
4 | CCn1cc[n+](C)c1.N#CN=C=[N-] [1-ethyl-3-methylimidazolium dicyanamide] | 323.76 ± 52 J/K/mol | 325.88 ± 52 J/K/mol | 328.01 ± 53 J/K/mol | 329.96 ± 53 J/K/mol | 332.44 ± 53 J/K/mol | 334.21 ± 54 J/K/mol | 335.81 ± 54 J/K/mol | 337.76 ± 54 J/K/mol | 340.24 ± 55 J/K/mol | 342.89 ± 55 J/K/mol | 345.55 ± 55 J/K/mol | 348.21 ± 56 J/K/mol | 351.22 ± 56 J/K/mol | 354.41 ± 57 J/K/mol | 357.78 ± 57 J/K/mol | 361.15 ± 58 J/K/mol | 364.87 ± 59 J/K/mol | 368.59 ± 59 J/K/mol | 372.49 ± 60 J/K/mol | 376.74 ± 60 J/K/mol
5 | CCn1cc[n+](C)c1.N#C[S-] [1-ethyl-3-methylimidazolium thiocyanate] | 284.51 ± 46 J/K/mol | 284.17 ± 46 J/K/mol | 285.18 ± 46 J/K/mol | 286.2 ± 46 J/K/mol | 287.89 ± 46 J/K/mol | 289.25 ± 47 J/K/mol | 290.6 ± 47 J/K/mol | 292.12 ± 47 J/K/mol | 293.98 ± 47 J/K/mol | 296.18 ± 48 J/K/mol | 298.22 ± 48 J/K/mol | 300.59 ± 48 J/K/mol | 303.12 ± 49 J/K/mol | 305.49 ± 49 J/K/mol | 308.2 ± 49 J/K/mol | 310.91 ± 50 J/K/mol | 313.96 ± 50 J/K/mol | 317.17 ± 51 J/K/mol | 320.05 ± 51 J/K/mol | 323.43 ± 52 J/K/mol
6 | O=S1(=O)CCCC1 [sulfolane] | – | – | – | 182.42 ± 29 J/K/mol | 183.5 ± 29 J/K/mol | 184.7 ± 30 J/K/mol | 185.9 ± 30 J/K/mol | 187.11 ± 30 J/K/mol | 188.79 ± 30 J/K/mol | 190.47 ± 31 J/K/mol | 192.39 ± 31 J/K/mol | 194.32 ± 31 J/K/mol | 196.36 ± 31 J/K/mol | 198.52 ± 32 J/K/mol | 200.81 ± 32 J/K/mol | 203.21 ± 33 J/K/mol | 205.73 ± 33 J/K/mol | 208.26 ± 33 J/K/mol | 210.9 ± 34 J/K/mol | 213.66 ± 34 J/K/mol
